Reference: patent EP1119538B1, “DERIVATIVES OF PHENANTRENE FOR MEDICINAL USE AND A PROCESS FOR THEIR PREPARATION” (Ammar, Khodor, priority 1998, dated 2000)

System: intestinal adenocarcinoma cells (lineage CACO-2)
Experiment: Proliferation inhibition in intestinal adenocarcinoma cells, lineage CACO-2
Assay type: cell-based
Conditions: cell lineage CACO-2
Description: Further research has recently been carried out using retinoic acid, sodium butyrate and the invention substances obtained as in Example 1. More specifically, tests were conducted on intestinal adenocarcinoma cells (lineages CACO-2 and HT-29) using isomers of molecular weight 256 - hereinafter referred to simply as "esters 256" - and using the compound of molecular weight 330 corresponding to formula IV, and mixtures mainly containing said compound - hereinafter referred to simply as "HHP" (hydroxy-hydro-phenanthrene). The results were as follows: • 1. The proliferation-inhibiting effect of HHP and butyrate on cell lineage CACO-2 is 80% as compared with 60% for retinoic acid. Inhibition in cell lineage HT-29 treated with HHP of 50µM concentration was 95% by the seventh day. • 2. […] HHP induces in the cell lineages a 3.5 times increase in the number of domes, indicating greater cell differentiation. • 6. […] In CACO-2, alpha 2,6, xyalyl transferase increases 3 times with respect to the control after two weeks' treatment with HHP.

Row | SMILES | proliferation-inhibiting effect [%]
1 | CCCC(=O)[O-].[Na+] [butyrate, sodium butyrate, reference compound] | 80
2 | CC1=C(/C=C/C(C)=C/C=C/C(C)=C/C(=O)O)C(C)(C)CCC1 [retinoic acid, reference compound] | 60
